Here are results for one compound from US8318770B2, “Tetrahydroquinoline indole derivatives and uses thereof” (Roche Palo Alto LLC, priority 2009, dated 2012).

As usually defined, the Ki is a dissociation constant, usually derived from enzyme kinetics or from competition with a known ligand.

Holding throughout (type): binding
Assay [1] has as its target T1, human norepinephrine transporter (hNET) (Homo sapiens, UniProt P23975).
T1 construct: expressed in transfected cells; host or cells: HEK-293 (Clone: HEK-hNET #2)
Nature of the assay: Human norepinephrine transporter (hNET) scintillation proximity assay, competition with [3H]-Nisoxetine. To be noted: membranes of HEK-293 cells expressing recombinant hNET, Ki by Cheng-Prusoff. The protocol: This assay was used to determine the affinity of ligands for the hNET transporter by competition with [^3H]-Nisoxetine. As in the hSERT assay of the above example, receptor-containing membranes were pre-coupled to the SPA beads and the binding of the appropriate radioligand to the transporter was measured. The light emission was proportional to the amount of bound radioligand, with unbound radioligand producing no signal.
HEK-293 cells (Tatsumi et al., Eur. J. Pharmacol. 1997, 30, 249-258) stably expressing recombinant hNET (Clone: HEK-hNET #2) were maintained with media (DMEM hi glucose with 10% FBS, 300 ug/ml G418 and 2 mM L-Glutamine) and incubated at 37° C. with 5% CO2. Cells were released from culture flasks using PBS for 1-2 minutes. […]
(§1) Cell membranes were prepared using a membrane preparation buffer of 50 mM TRIS (pH 7.4). […] After a second centrifugation, the pellet was re-homogenized and brought to a final volume determined during the assay. […]
^3[H] […] The mixtures were allowed to stand at room temperature for one hour, and were then counted on a Packard TopCount LCS, a generic SPA counting protocol settings (Energy Range: Low, Efficiency Mode: Normal, Region A: 1.50-35.00, Region B: 1.50-256.00, Count Time (min.): 0.40, Background Subtract: none, Half-Life Correction: no, Quench Indicator: tSIS, Platemap blank subtraction: No, Cross talk reduction: Off). […]
In general terms: In a scintillation proximity assay essentially only radioactivity close to the scintillant gives light.

Assay [2] deals with T2, human dopamine transporter (hDAT) (Homo sapiens, UniProt Q01959).
T2 construct: expressed in transfected cells; host or cells: HEK-293
As to the kind of experiment: Human dopamine transporter (hDAT) scintillation proximity assay, competition with [3H]-Vanoxerine. The conditions noted are these: HEK-293 cells expressing recombinant hDAT, Ki by Cheng-Prusoff. Here is the method:
This assay was used to determine the affinity of ligands for the dopamine transporter by competition with [^3H]-Vanoxerine.
HEK-293 cells (Tatsumi et al., Eur. J. Pharmacol. 1997, 30, 249-258) stably expressing recombinant hDAT were maintained with media (DMEM hi glucose with 10% FBS, […] G418 and 2 mM L-Glutamine) and incubated at 37° C. with 5% CO2. Cells were plated four hours prior to experiment by placing approximately 30,000 cells per well (in PBS) on white, opaque Cell-Tak coated 96 well plates. Extra buffer was apriated from the cell plates using an ELx405 plate washer.
^3[H] vanoxerine (GBR 12909) radioligand, specific activity approximately 59 Ci/mmol, stock concentration, 400 nM, and 50 mM Tris-HCl, 300 mM NaCl, (pH 7.4) buffers were used for Scintillation Proximity Assay IC50/Ki determination. […]
The % inhibition was calculated for each compound tested [(Compound CPM at maximum concentration-Non-Specific CPM)/Total CPM*100]. […]
(§2) [formula] where max=total binding, min=non specific binding, x=concentration (M) of the tested compound and n=Hill slope. The inhibition dissociation constant (Ki) of each compound was determined according to the method of Cheng-Prusoff and then converted into negative logarithm (pKi) of the Ki.

Assay [3] addresses T3, human serotonin transporter (hSERT) (Homo sapiens, UniProt P31645).
T3 construct: expressed in transfected cells; host or cells: HEK-293
As to the kind of experiment: Human serotonin transporter (hSERT) scintillation proximity assay, competition with [3H]-Citalopram. To be noted: membranes of HEK-293 cells expressing recombinant hSERT, Ki by Cheng-Prusoff. Here is the method:
The screening assay of this example was used to determine the affinity of ligands at the hSERT transporter by competition with [^3H]-Citalopram.
Scintillation Proximity Assay (SPA) works by bringing radioligand within close proximity to the bead's scintillant to stimulate light emission. In this assay, the receptor-containing membranes were pre-coupled to the SPA beads and the binding of the appropriate radioligand to the transporter was measured. The light emission was proportional to the amount of bound radioligand. Unbound radioligand produced no signal as a result of distant proximity to scintillant (lack of energy transfer). […]
as §1
The % inhibition was calculated for each compound tested [(Compound counts per minute (CPM) at maximum concentration-Non-Specific CPM)/Total CPM*100]. […]
as §2

SMILES strings stand for the structures.

T2 sequence (Q01959 whole entry): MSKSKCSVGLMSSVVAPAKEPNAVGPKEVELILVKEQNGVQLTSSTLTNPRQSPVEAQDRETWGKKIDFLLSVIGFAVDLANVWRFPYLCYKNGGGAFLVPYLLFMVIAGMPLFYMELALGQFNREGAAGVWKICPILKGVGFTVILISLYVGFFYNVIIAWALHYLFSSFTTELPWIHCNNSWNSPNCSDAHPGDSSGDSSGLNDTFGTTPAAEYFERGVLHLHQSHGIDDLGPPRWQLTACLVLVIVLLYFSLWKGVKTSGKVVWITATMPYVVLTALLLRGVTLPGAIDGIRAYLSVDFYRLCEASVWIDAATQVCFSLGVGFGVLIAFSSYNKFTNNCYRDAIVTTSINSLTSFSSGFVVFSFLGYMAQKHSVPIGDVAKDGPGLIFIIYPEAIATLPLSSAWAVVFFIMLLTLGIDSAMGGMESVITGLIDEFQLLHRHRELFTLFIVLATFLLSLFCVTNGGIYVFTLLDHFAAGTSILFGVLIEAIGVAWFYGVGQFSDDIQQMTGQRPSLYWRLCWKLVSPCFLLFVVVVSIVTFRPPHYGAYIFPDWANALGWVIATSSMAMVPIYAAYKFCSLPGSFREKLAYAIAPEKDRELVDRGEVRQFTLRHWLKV
T3 sequence (P31645 whole entry): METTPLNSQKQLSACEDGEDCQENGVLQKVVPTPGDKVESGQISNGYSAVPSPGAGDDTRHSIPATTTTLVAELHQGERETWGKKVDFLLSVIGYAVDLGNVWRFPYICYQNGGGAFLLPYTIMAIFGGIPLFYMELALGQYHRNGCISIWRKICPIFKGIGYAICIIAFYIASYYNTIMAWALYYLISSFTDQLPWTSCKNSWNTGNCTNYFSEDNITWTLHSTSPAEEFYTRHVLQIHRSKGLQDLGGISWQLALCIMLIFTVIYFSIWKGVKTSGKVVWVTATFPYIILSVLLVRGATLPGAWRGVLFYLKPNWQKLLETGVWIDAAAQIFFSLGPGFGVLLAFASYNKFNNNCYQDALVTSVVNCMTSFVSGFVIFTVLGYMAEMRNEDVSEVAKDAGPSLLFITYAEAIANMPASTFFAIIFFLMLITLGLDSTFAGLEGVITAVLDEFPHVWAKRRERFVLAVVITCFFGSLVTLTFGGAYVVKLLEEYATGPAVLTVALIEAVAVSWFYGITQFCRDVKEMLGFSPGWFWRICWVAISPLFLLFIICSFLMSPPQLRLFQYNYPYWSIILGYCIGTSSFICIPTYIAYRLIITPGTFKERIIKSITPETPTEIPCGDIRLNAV
T1 sequence (P23975 whole entry): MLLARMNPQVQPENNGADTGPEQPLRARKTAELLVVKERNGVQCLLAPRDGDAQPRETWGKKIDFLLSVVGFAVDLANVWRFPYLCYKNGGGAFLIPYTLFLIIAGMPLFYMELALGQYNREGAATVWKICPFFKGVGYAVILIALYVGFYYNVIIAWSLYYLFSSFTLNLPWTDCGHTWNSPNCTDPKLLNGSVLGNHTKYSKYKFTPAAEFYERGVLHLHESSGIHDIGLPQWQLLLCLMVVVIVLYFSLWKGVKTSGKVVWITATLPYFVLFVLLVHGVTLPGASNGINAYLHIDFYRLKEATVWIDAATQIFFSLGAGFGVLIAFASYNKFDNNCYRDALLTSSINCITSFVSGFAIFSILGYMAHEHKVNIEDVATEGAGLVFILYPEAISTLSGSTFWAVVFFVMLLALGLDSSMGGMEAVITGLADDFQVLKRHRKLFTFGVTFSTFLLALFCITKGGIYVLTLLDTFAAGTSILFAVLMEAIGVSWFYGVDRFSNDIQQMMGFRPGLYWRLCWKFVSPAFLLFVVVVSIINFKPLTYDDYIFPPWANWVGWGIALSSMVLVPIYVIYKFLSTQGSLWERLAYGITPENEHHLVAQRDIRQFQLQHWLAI

As to `CNC1CCN(c2ccc3[nH]ccc3c2)c2ccccc21` (stereo not drawn) [[1-(1H-Indol-5-yl)-1,2,3,4-tetrahydro-quinolin-4-yl]-methyl-amine], the Ki in assay [1] is around 15.5 nM; in assay [2] it was around 14.1 nM; in assay [3], around 33.1 nM.
